Measured values reported in PubChem BioAssay AID1963848 (Molecular Pharmacology Branch, DTP, NCI, 2024).

Tested on: 379773-124-R-J2-PDC spheroid viability
Experiment: Anticancer human tumor 379773-124-R-J2-PDC patient-derived endometrial carcinoma cell line growth inhibition [POLQ]
Conditions: spheroids with HUVEC and MSC; for IC50: curve of first compound; for viability, T/C: stronger effect = lower value; active = viability on the fitted dose curve at most 10% of control; inactive = the rest
Outline: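 PDC + HUVEC + MSC complex spheroids; POLQ inhibitors ± partner drugs; top conc. at/near clinical Cmax, else 10 microM (SN-38 1 microM), half-log dilutions; 37 degrees C, 5% CO2.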

[1] = second compound 0.0316 µM, first compound 0.00316 µM
[2] = second compound 0.0316 µM, first compound 0.01 µM
[3] = second compound 0.0316 µM, first compound 0.0316 µM
[4] = second compound 0.0316 µM, first compound 0.1 µM
[5] = second compound 0.1 µM, first compound 0.00316 µM
[6] = second compound 0.1 µM, first compound 0.01 µM
[7] = second compound 0.1 µM, first compound 0.0316 µM
[8] = second compound 0.1 µM, first compound 0.1 µM
[9] = second compound 0.316 µM, first compound 0.00316 µM
[10] = second compound 0.316 µM, first compound 0.01 µM
[11] = second compound 0.316 µM, first compound 0.0316 µM
[12] = second compound 0.316 µM, first compound 0.1 µM
[13] = second compound 1 µM, first compound 0.00316 µM
[14] = second compound 1 µM, first compound 0.01 µM
[15] = second compound 1 µM, first compound 0.0316 µM
[16] = second compound 1 µM, first compound 0.1 µM
[17] = second compound 3.16 µM, first compound 0.00316 µM
[18] = second compound 3.16 µM, first compound 0.01 µM
[19] = second compound 3.16 µM, first compound 0.0316 µM
[20] = second compound 3.16 µM, first compound 0.1 µM
[21] = second compound 10 µM, first compound 0.00316 µM
[22] = second compound 10 µM, first compound 0.01 µM
[23] = second compound 10 µM, first compound 0.0316 µM
[24] = second compound 10 µM, first compound 0.1 µM
[25] = second compound 0.0316 µM, first compound 0.316 µM
[26] = second compound 0.0316 µM, first compound 1 µM
[27] = second compound 0.1 µM, first compound 0.316 µM
[28] = second compound 0.1 µM, first compound 1 µM
[29] = second compound 0.316 µM, first compound 0.316 µM
[30] = second compound 0.316 µM, first compound 1 µM
[31] = second compound 1 µM, first compound 0.316 µM
[32] = second compound 1 µM, first compound 1 µM
[33] = second compound 3.16 µM, first compound 0.316 µM
[34] = second compound 3.16 µM, first compound 1 µM
[35] = second compound 10 µM, first compound 0.316 µM
[36] = second compound 10 µM, first compound 1 µM
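Note: spheroids exposed to drugs for seven days before readout.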
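Throughout, for viability, T/C: percent viability relative to DMSO vehicle control taken as 100%.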

Cn1ncnc1[C@H]1c2n[nH]c(=O)c3cc(F)cc(c23)N[C@@H]1c1ccc(F)cc1 + Cc1cccc(N(C)C(=O)C2C(O)CCN2c2nc(C)cc(C(F)(F)F)c2C#N)c1
inactive: viability, T/C (second compound 0.0316 µM, first compound 0.000316 µM) 79.1% | viability, T/C (second compound 0.0316 µM, first compound 0.001 µM) 78.9% | viability, T/C [1] 74.5% | viability, T/C [2] 89.8% | viability, T/C [3] 67.8% | viability, T/C [4] 60.8% | viability, T/C (second compound 0.1 µM, first compound 0.000316 µM) 86.3% | viability, T/C (second compound 0.1 µM, first compound 0.001 µM) 77.2% | viability, T/C [5] 90.2% | viability, T/C [6] 82.8% | viability, T/C [7] 61.5% | viability, T/C [8] 55.6% | viability, T/C (second compound 0.316 µM, first compound 0.000316 µM) 85.7% | viability, T/C (second compound 0.316 µM, first compound 0.001 µM) 79.7% | viability, T/C [9] 74.2% | viability, T/C [10] 73.6% | viability, T/C [11] 82.8% | viability, T/C [12] 55.5% | viability, T/C (second compound 1 µM, first compound 0.000316 µM) 76.8% | viability, T/C (second compound 1 µM, first compound 0.001 µM) 87.3% | viability, T/C [13] 75.8% | viability, T/C [14] 76.7% | viability, T/C [15] 65.6% | viability, T/C [16] 60.6% | viability, T/C (second compound 3.16 µM, first compound 0.000316 µM) 74.9% | viability, T/C (second compound 3.16 µM, first compound 0.001 µM) 83.3% | viability, T/C [17] 67.6% | viability, T/C [18] 84.2% | viability, T/C [19] 70.2% | viability, T/C [20] 47.8% | viability, T/C (second compound 10 µM, first compound 0.000316 µM) 76.8% | viability, T/C (second compound 10 µM, first compound 0.001 µM) 78% | viability, T/C [21] 74.7% | viability, T/C [22] 70.5% | viability, T/C [23] 62.7% | viability, T/C [24] 54.1%
90.1 nM: IC50 (second compound 3.16 µM)
> 100 nM: IC50 (second compound 0.0316 µM) | IC50 (second compound 0.1 µM) | IC50 (second compound 0.316 µM) | IC50 (second compound 1 µM) | IC50 (second compound 10 µM)

C=CCn1c(=O)c2cnc(Nc3ccc(N4CCN(C)CC4)cc3)nc2n1-c1cccc(C(C)(C)O)n1 + Nc1ccc(C#CCN(C(=O)Cc2ncc(C(F)(F)F)cc2C(F)(F)F)c2ccc(F)cc2)nn1
436 nM: IC50 (second compound 0.316 µM)
447 nM: IC50 (second compound 0.0316 µM) | IC50 (second compound 1 µM)
451 nM: IC50 (second compound 10 µM)
active: viability, T/C [26] 2.92% | viability, T/C [28] 3.57% | viability, T/C [30] 3.12% | viability, T/C [32] 3.73% | viability, T/C [34] 3.02% | viability, T/C [36] 2.81%
inactive: viability, T/C [1] 90.6% | viability, T/C [2] 101% | viability, T/C [3] 93.7% | viability, T/C [4] 104% | viability, T/C [25] 70.3% | viability, T/C [5] 95.5% | viability, T/C [6] 99.2% | viability, T/C [7] 107% | viability, T/C [8] 111% | viability, T/C [27] 78.1% | viability, T/C [9] 95.7% | viability, T/C [10] 91.7% | viability, T/C [11] 97% | viability, T/C [12] 92.4% | viability, T/C [29] 68.1% | viability, T/C [13] 103% | viability, T/C [14] 103% | viability, T/C [15] 100% | viability, T/C [16] 97.5% | viability, T/C [31] 69.8% | viability, T/C [17] 113% | viability, T/C [18] 99.3% | viability, T/C [19] 96.1% | viability, T/C [20] 105% | viability, T/C [33] 80.9% | viability, T/C [21] 101% | viability, T/C [22] 88.8% | viability, T/C [23] 92.3% | viability, T/C [24] 88.6% | viability, T/C [35] 71.4%
488 nM: IC50 (second compound 0.1 µM)
499 nM: IC50 (second compound 3.16 µM)

COc1cc(C2c3cc4c(cc3C(OC3OC5COC(C)OC5C(O)C3O)C3COC(=O)C23)OCO4)cc(OC)c1O (stereo unspecified) + Nc1ccc(C#CCN(C(=O)Cc2ncc(C(F)(F)F)cc2C(F)(F)F)c2ccc(F)cc2)nn1
1490 nM: IC50 (second compound 0.316 µM)
1240 nM: IC50 (second compound 1 µM) | IC50 (second compound 10 µM)
1500 nM: IC50 (second compound 0.0316 µM)
1570 nM: IC50 (second compound 0.1 µM)
inactive: viability, T/C [3] 95.4% | viability, T/C [4] 116% | viability, T/C [25] 81.9% | viability, T/C [26] 70.4% | viability, T/C (second compound 0.0316 µM, first compound 3.16 µM) 17% | viability, T/C (second compound 0.0316 µM, first compound 10 µM) 15.5% | viability, T/C [7] 98.8% | viability, T/C [8] 86% | viability, T/C [27] 90% | viability, T/C [28] 70.2% | viability, T/C (second compound 0.1 µM, first compound 3.16 µM) 18.6% | viability, T/C (second compound 0.1 µM, first compound 10 µM) 14.1% | viability, T/C [11] 92.5% | viability, T/C [12] 116% | viability, T/C [29] 97% | viability, T/C [30] 67.4% | viability, T/C (second compound 0.316 µM, first compound 3.16 µM) 15.9% | viability, T/C (second compound 0.316 µM, first compound 10 µM) 16.8% | viability, T/C [15] 99.1% | viability, T/C [16] 96.2% | viability, T/C [31] 78.4% | viability, T/C [32] 62.2% | viability, T/C (second compound 1 µM, first compound 3.16 µM) 17.3% | viability, T/C (second compound 1 µM, first compound 10 µM) 13.8% | viability, T/C [19] 94.1% | viability, T/C [20] 96.1% | viability, T/C [33] 81.7% | viability, T/C [34] 65.1% | viability, T/C (second compound 3.16 µM, first compound 3.16 µM) 18.2% | viability, T/C (second compound 3.16 µM, first compound 10 µM) 13.6% | viability, T/C [23] 98% | viability, T/C [24] 92.7% | viability, T/C [35] 98% | viability, T/C [36] 57.6% | viability, T/C (second compound 10 µM, first compound 3.16 µM) 16.9% | viability, T/C (second compound 10 µM, first compound 10 µM) 16.3%
1410 nM: IC50 (second compound 3.16 µM)
